Test results from US7629318B2, “Immunosuppressant compounds, methods and uses related thereto” (priority 2002, dated 2009).
Numbered stars: 1 amine (or outer) side, 2 acyl side, 3 side chain; on linkers, the order of the positions; unused ones are H or OH. Square brackets hold non-standard residues; d marks the D form. Peptide text beside a SMILES is read from it. * marks the point of attachment. ξ: configuration not given here. Gly(1-amidinopiperidin-4-yl) = N=C(N)N1CCC([C@H](N)C(=O)O)CC1; X1 = CC(C)c1oc([C@H](CO)N[*:1])nc1C(=O)[*:2]; Pro(3R-Ph) = O=C(O)[C@H]1NCC[C@@H]1c1ccccc1; Tic = O=C(O)[C@@H]1Cc2ccccc2CN1; Cha = N[C@@H](CC1CCCCC1)C(=O)O; NHPhenethyl = c1ccc(CCN*)cc1; NMe(benzyl) = CN(Cc1ccccc1)*; ξDisc = O=C(O)C1NCc2ccccc21; Nle = CCCC[C@H](N)C(=O)O; X2 = OCCOCCN(Cc1ccccc1)*; NHBn = c1ccc(CN*)cc1; X3 = OCCOCCN*

Key:
[1] = tested on: T cell activation from 0401(DR4) chimeric MHCII-mice; test: In vivo inhibition of T cell activation by co-immunisation, DR4 mice immunised with HEL; parameters: species or system mouse; % Reduction of response to PPD(HEL): concentration or dose not given beside the values; settings: for % Reduction of response to HEL: DR4 mice co-immunised with HEL plus compound, mean % inhibition from the control over 3 concentrations of antigen (6.7, 20 and 60 ug); for % Reduction of response to PPD(HEL): specificity control: response to PPD in the same cell pool, HEL co-immunised mice
From the text: (§1) Mouse strains DR4 and DR14 carry chimeric MHC-II transgenes that encode the N-terminal domains of the respective DR molecules (forming the peptide binding site) and the remaining (2nd extracellular domains, transmembrane and intracytoplasmic domains) of the murine class II molecule I Ed. These strains are deficient of other murine class II, and thus, all helper T cell responses are triggered by peptides presented in the respective human MHC-II binding site. As an initial in vivo test of subject inhibitors designed to bind to DR, DR-transgenic mice were co-immunized with a pre-defined dose of protein antigen and different amounts of the compound antagonist to be tested. In this set-up, both antigen and compound were emulsified together in complete Freund's adjuvant (CFA), and thus, a direct competition between the two components for presentation by DR was tested. Readout of the assay is ex vivo antigen-specific activation of T cells from regional lymph nodes explanted 9 days after co-immunization. In a typical experiment, antigen dose-response was investigated, and the curves from mice immunized with antigen were compared to those from mice co-immunized with antigen+compound. The dose response curves were generated using lymph node cells pooled at equal numbers from 2-3 mice per experimental group. The experimental system also permits assessment of inherent antigenicity of the compound antagonist. This was done by setting up a dose-response study from the same cell pool using different concentrations of the compund under investigation instead of the antigen. As a specificity control, the response to Purified Protein Derivative (PPD), the major protein component of CFA, was tested in the same cell pool.
(§2) All Gpg conataining compounds have significant immunosupressive properties in one or both of the in-vivo models. Gpg-containing compounds also show improved activity or improved specificity over the Arg-containing equivilent. Further, compounds according to Formula I show activity in this assay.
(§3) Compounds of the invention were injected as an Emulsion prepared using CFA (Bacto Adjuvant Complete H37 Ra, Difco, Order-No. 3113-60); proteins 10 mg/ml in PBS, inhibitors 5 μM in 10% DMSO. CFA, PBS, antigen, and inhibitor were placed in the barrel of a 5-ml syringe (total volume not more than 1 mL). The mixture was sonicated at an amplitude less than 40% (30-35%) for two separated 15 s periods. The emulsion should seem to be hard and not liquid at this point. A drop of emulsion placed on the surface of water should not melt. The resulting emulsion was pushed through the needle into a 1 ml syringe with a needle (Gr.18, 26G×1″), and air bubbles were removed. Mice were co-immunized with 50 μg protein and 210 nM compound antagonist in final 100 μl emulsion into the tail base. Antigen+Compound and CFA are mixed 1:1 vol/vol. The best results are obtained using DR 4 mice immunised with HEL and DR 14 mice immunized with OVA.
(§4) Mice were injected at the tail-base as follows: Holding the tail of a mouse with thumb and middle finger, the index finger was placed under the base of the mouse's tail. The needle of the syringe was inserted about 1.5 cm from the tail base (hairy end) under the skin and pushed about 1 cm into the tail. 100 μl emulsion was injected into the mouse. After 9 days, mice were killed and lymph nodes removed.
(§5) The inhibitory effect of the candidate compounds on T-cell activation was tested using T-cells and antigen-presenting cells isolated from the lymph nodes of chimeric DR4-IE transgenic mice (Taconic, USA) previously co-immunized with hen egg lysozyme plus compound, or DR14-IE transgenic mice co-immunized with ovalbumin plus compound according to standard procedures (Adorini et al., 1988, Mueller et al., 1990; Current Protocols in Immunology, Vol. 2, 7.21; Ito et al., 1996). […]

[2] = tested on: T cell activation from 0404(DR14) chimeric MHCII-mice; test: In vivo inhibition of T cell activation by co-immunisation, DR14 mice immunised with OVA; parameters: species or system mouse; % Reduction of response to PPD(OVA): concentration or dose not given beside the values; settings: for % Reduction of response to OVA: DR14 mice co-immunised with OVA plus compound, mean % inhibition from the control over 3 concentrations of antigen (6.7, 20 and 60 ug); for % Reduction of response to PPD(OVA): specificity control: response to PPD in the same cell pool, OVA co-immunised mice
From the text: as §1, §2, §3, §4, §5

[3] = tested on: HLA-DR1 transgenic mice, collagen induced arthritis; test: Collagen induced arthritis (CIA) mouse model for rheumatoid arthritis; type: in vivo; settings: compared to solvent as control; s.c.
Description: CIA is induced by immunization with type II collagen in HLA-DR1 transgenic mice as described by Rosloniec et al (J. Exp. Med. 1997; 185: 113). After disease onset, mice are treated with compounds at the maximal tolerated dose s.c. for two weeks, and the disease development compared to that in mice treated with solvent only as follows:
Disease Severity Score • 1. Erythema and mild swelling confined to the tarsals or ankle joint • 2. Erythema and mild swelling extending from the ankle to the tarsals • 3. Erythema and moderate swelling extending from the ankle to the metatarsal joints • 4. Erythema and severe swelling encompass the ankle, foot, and digits

[4] = tested on: DR4 transgenic mice, EAE induced by MOG; test: Experimental autoimmune encephalomyelitis (EAE) mouse model for multiple sclerosis; type: in vivo; settings: for efficacy in the EAE mouse model for multiple sclerosis prevention: compared to solvent as control, s.c.
Description: EAE is induced in DR4 transgenic mice by injection of myelin oligodendrocyte glycoprotein (MOG) as described by Ito et al. (1996). After disease onset, mice are treated with compounds and studied as below:
Disease Score • 1. Tail atony • 2. Hind limb weakness • 3. Hind limb paralysis • 4. Hind limb paralysis and fore limb weakness or paralysis • 5. Moribund

Cathepsin L = Cathepsin L (Homo sapiens, UniProt P07711)
Sequence of Cathepsin L (P07711 114-333): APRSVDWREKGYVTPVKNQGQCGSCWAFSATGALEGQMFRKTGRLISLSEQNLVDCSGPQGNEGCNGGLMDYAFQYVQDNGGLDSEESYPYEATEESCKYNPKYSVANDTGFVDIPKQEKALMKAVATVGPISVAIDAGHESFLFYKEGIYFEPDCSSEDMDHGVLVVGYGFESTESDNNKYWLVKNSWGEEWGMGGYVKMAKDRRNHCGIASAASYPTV

Row | SMILES | % Reduction of response to HEL [1] [%] | % Reduction of response to PPD(HEL) [1] [%] | % Reduction of response to OVA [2] [%] | % Reduction of response to PPD(OVA) [2] [%] | also measured
1 | CSCC[C@H](NC(=O)[C@@H]1Cc2ccccc2CN1C(=O)[C@@H](NC(=O)[C@H](CC1CCCCC1)NC(C)=O)C1CCN(C(=N)N)CC1)C(=O)N(CCOCCO)Cc1ccccc1 [Compound P102, Ac-Cha-Gpg-Tic-Met-N(Bn)CH2CH2OCH2CH2OH] (Ac-[Cha][Gly(1-amidinopiperidin-4-yl)][Tic]M-X2) | 41.3 | 31.2 |  |  | 
2 | CCCC[C@H](NC(=O)[C@@H]1Cc2ccccc2CN1C(=O)[C@@H](NC(=O)[C@H](CC1CCCCC1)NC(C)=O)C1CCN(C(=N)N)CC1)C(=O)NCc1ccccc1 [Compound P68, Ac-Cha-Gpg-Tic-Nle-N(H)Bn] (Ac-[Cha][Gly(1-amidinopiperidin-4-yl)][Tic][Nle]-NHBn) | −3.2 | 25.1 | 95.3 | 65.9 | 
3 | CCCC[C@H](NC(=O)[C@@H]1Cc2ccccc2CN1C(=O)[C@@H](NC(=O)[C@H](CC1CCCCC1)NC(C)=O)C1CCN(C(=N)N)CC1)C(=O)N1CC[C@H](c2ccccc2)[C@H]1C(=O)N[C@@H](CO)c1nc(C(=O)N(C)C)c(C(C)C)o1 [Compound P53, Ac-Cha-Gpg-Tic-Nle-βPhPro-[S(oxaz)L]-NMe2] (Ac-[Cha][Gly(1-amidinopiperidin-4-yl)][Tic][Nle][Pro(3R-Ph)][X1]-NMe2) | 68.4 | 10.2 | 56.3 | 26.8 | efficacy in the CIA mouse model for rheumatoid arthritis [3]: Efficacy; efficacy in the EAE mouse model for multiple sclerosis prevention [4]: Efficacy
4 | CCCC[C@H](NC(=O)[C@@H]1Cc2ccccc2CN1C(=O)[C@@H](NC(=O)[C@H](CC1CCCCC1)NC(C)=O)C1CCN(C(=N)N)CC1)C(=O)NCCc1ccccc1 [Compound P69, Ac-Cha-Gpg-Tic-Nle-N(H)CH2CH2Ph] (Ac-[Cha][Gly(1-amidinopiperidin-4-yl)][Tic][Nle]-NHPhenethyl) | 59 | 2 | 65.3 | 9 | in-vivo immunosuppressive properties following co-immunisation with antigen as measured by T-cell proliferation ([2]; compared to the Arg-containing equivalent, antigen/mouse strain not stated in the legend): Superior in-vivo immunosuppressive properties; efficacy in the CIA mouse model for rheumatoid arthritis [3]: Efficacy; efficacy in the EAE mouse model in terms of disease treatment, versus Arg compound ([4]; P69 at 125 nM compared to P82 at 250 nM): superior; efficacy in the EAE mouse model for multiple sclerosis prevention [4]: Efficacy
5 | CCCC[C@H](NC(=O)[C@@H]1Cc2ccccc2CN1C(=O)[C@H](CCCNC(=N)N)NC(=O)[C@H](CC1CCCCC1)NC(C)=O)C(=O)N1CC[C@H](c2ccccc2)[C@H]1C(=O)N[C@@H](CO)c1nc(C(=O)N(C)C)c(C(C)C)o1 [Compound P51, Ac-Cha-Arg-Tic-Nle-βPhPro-[S(oxaz)L]-NMe2] (Ac-[Cha]R[Tic][Nle][Pro(3R-Ph)][X1]-NMe2) |  |  | 43.1 | 3.5 | 
6 | CSCC[C@H](NC(=O)[C@@H]1Cc2ccccc2CN1C(=O)[C@H](CCCNC(=N)N)NC(=O)[C@H](CC1CCCCC1)NC(C)=O)C(N)=O [Compound P1, Ac-Cha-Arg-Tic-Met-NH2] (Ac-[Cha]R[Tic]M-NH2) |  |  |  |  | Stability (Arbitrary units) Cath L 4 h (Cathepsin L): 117 Arbitrary units
7 | CCCC[C@H](NC(=O)[C@@H]1Cc2ccccc2CN1C(=O)[C@@H](NC(=O)[C@H](CC1CCCCC1)NC(C)=O)C1CCN(C(=N)N)CC1)C(=O)N(CCOCCO)Cc1ccccc1 [Compound P101, Ac-Cha-Gpg-Tic-Nle-N(Bn)CH2CH2OCH2CH2OH] (Ac-[Cha][Gly(1-amidinopiperidin-4-yl)][Tic][Nle]-X2) | 49.7 | 41.1 |  |  | 
8 | CSCC[C@H](NC(=O)[C@@H]1Cc2ccccc2CN1C(=O)[C@@H](NC(=O)[C@H](CC1CCCCC1)NC(C)=O)C1CCN(C(=N)N)CC1)C(=O)N1CC[C@H](c2ccccc2)[C@H]1C(=O)N[C@@H](CO)c1nc(C(=O)N(C)C)c(C(C)C)o1 [Compound P60, Ac-Cha-Gpg-Tic-Met-βPhPro-[S(oxaz)L]-NMe2] (Ac-[Cha][Gly(1-amidinopiperidin-4-yl)][Tic]M[Pro(3R-Ph)][X1]-NMe2) |  |  | 50.3 | 28.1 | 
9 | CSCC[C@H](NC(=O)C1c2ccccc2CN1C(=O)[C@H](CCCNC(=N)N)NC(=O)[C@H](CC1CCCCC1)NC(C)=O)C(N)=O (stereo partly drawn) [Compound P12-1, Ac-Cha-Arg-Disc-Met-NH2] (Ac-[Cha]R[ξDisc]M-NH2) |  |  |  |  | Stability (Arbitrary units) Cath L 4 h (Cathepsin L): 101 Arbitrary units
10 | CSCC[C@H](NC(=O)C1c2ccccc2CN1C(=O)[C@@H](NC(=O)[C@H](CC1CCCCC1)NC(C)=O)C1CCN(C(=N)N)CC1)C(=O)N1CC[C@H](c2ccccc2)[C@H]1C(=O)N[C@@H](CO)c1nc(C(=O)N(C)C)c(C(C)C)o1 (stereo partly drawn) [Compound P41-1, Ac-Cha-Gpg-Disc-Met-βPhPro-[S(oxaz)L]-NMe2] (Ac-[Cha][Gly(1-amidinopiperidin-4-yl)][ξDisc]M[Pro(3R-Ph)][X1]-NMe2) |  |  | 50.1 | 21.6 | 
11 | CCCC[C@H](NC(=O)[C@@H]1Cc2ccccc2CN1C(=O)[C@H](CCCNC(=N)N)NC(=O)[C@H](CC1CCCCC1)NC(C)=O)C(=O)N(C)Cc1ccccc1 [Compound P71, Ac-Cha-Arg-Tic-Nle-N(Me)Bn] (Ac-[Cha]R[Tic][Nle]-{NMe(benzyl)}) | 78.1 | 62.1 | 48.8 | 21.8 | 
12 | CCCC[C@H](NC(=O)[C@@H]1Cc2ccccc2CN1C(=O)[C@@H](NC(=O)[C@H](CC1CCCCC1)NC(C)=O)C1CCN(C(=N)N)CC1)C(=O)NCCOCCO [Compound P70, Ac-Cha-Gpg-Tic-Nle-N(H)CH2CH2OCH2CH2OH] (Ac-[Cha][Gly(1-amidinopiperidin-4-yl)][Tic][Nle]-X3) |  |  | 56.1 | 52.3 | 
13 | CSCC[C@H](NC(=O)[C@@H]1Cc2ccccc2CN1C(=O)[C@H](CCCNC(=N)N)NC(=O)[C@H](CC1CCCCC1)NC(C)=O)C(=O)N1CC[C@H](c2ccccc2)[C@H]1C(N)=O [Compound P31, Ac-Cha-Arg-Tic-Met-βPhPro-NH2] (Ac-[Cha]R[Tic]M[Pro(3R-Ph)]-NH2) |  |  |  |  | Stability (Arbitrary units) Cath L 4 h (Cathepsin L): 103 Arbitrary units
